Experimental data reported in a melting point compilation (Tetko et al.; mined from patent text by program, amines drawn as free bases though some values may be those of a salt).

melting point	SMILES
238 to 240 °C	Cc1nc2c(Cl)cc(Cl)cc2c(=O)n1C1CCC(=O)NC1=O (configuration not stated)
243 to 245 °C	CS(=O)c1ccc(-n2cnc3ccc(-c4nnc(C5CC5)o4)cc32)cc1 (configuration not stated)
139 to 141 °C	O=C1c2ccccc2C(=O)N1CCC=Cc1csc(-c2ccccn2)n1
152 to 153 °C	c1ccc2c(c1)N=C(c1ccncc1)c1cccc3c1N2CC3
206 to 208 °C	Cc1nc(Sc2cc(C(=O)O)c3ccccc3n2)sc1CC(=O)O
118 to 128 °C	CC#CCOc1ccc(S(=O)(=O)NCCC(=O)NO)cc1
205 to 208 °C	CCOC1(C#N)NC(=O)C(=O)NC1(C#N)OCC (configuration not stated)
89 to 90 °C	Cn1nc(-c2cc([N+](=O)[O-])c(O)cc2F)c(Cl)c1C(F)(F)F
162 to 164 °C	OCCNc1nc2ccccc2o1
186 to 188 °C	CCOC(=O)c1cn(-c2ccccc2)c2c([N+](=O)[O-])c(Cl)c(F)cc2c1=O
208 to 209 °C	C#CCN(Cc1ccc2nc(C)[nH]c(=O)c2c1)c1ccc(C(=O)NC(C)(C#N)Cc2ccccc2)cc1 (configuration not stated)
70 to 72 °C	COC(=O)c1ccc(S(C)(=O)=O)c(C(=O)NCC(C)CO)c1Cl (configuration not stated)
220 to 221 °C	CNC1(c2ccccc2Cl)C(=O)N(S(=O)(=O)c2ccc([N+](=O)[O-])cc2)c2ccc(Cl)cc21 (configuration not stated)
318 to 321 °C	O=C(c1c[nH]c(=O)[nH]1)c1ccco1
123 °C	COc1ccc(-c2ccc(=O)n(Cc3nc(-c4ccc(F)cc4)no3)c2)cc1
160 to 161 °C	CCCCCCOc1ccc(NC(=O)c2cn(-c3ccc(F)cc3)nc2C)cc1C#N
183 to 184 °C	CCCc1nc2c(N)nc3cc(OCc4ccc(Cl)c(Cl)c4)ccc3c2n1CC(C)C
179 to 180 °C	CC(=O)c1ccc(S(=O)(=O)Nc2ccc(C(F)(F)F)cn2)cc1
289 to 291 °C	COc1ccc(C(=O)C2=C(O)C(=O)N(c3nncs3)C2c2ccc(C(C)(C)C)cc2)cc1 (configuration not stated)
74 to 76 °C	CCCCCCNC(=O)[C@@H](NC(=O)OC(C)(C)C)C(C)C
161 to 162 °C	Oc1c2c(nn1-c1cc(C(F)(F)F)ccn1)CCc1ccccc1-2
172 to 173 °C	FC(F)(F)c1ccnc(Oc2ccc(CCOc3ncnc4nccnc34)cc2)c1
105 to 107 °C	COc1ccc(COc2c(C)c(C)c3c(c2C)C(c2ccc(N(C)C)cc2)C(C)(C)O3)cc1 (configuration not stated)
133 to 135 °C	O=C1c2ccccc2C(=O)N1OCc1cnoc1
163 to 165 °C	CCOc1cc(-c2nc(-c3cnc(N)c(C)c3)no2)ccc1-c1ccccc1C(F)(F)F

melting point	SMILES
184 °C	Cc1cc(-c2ccc(C#N)cc2)c(C#N)n1Cc1cnc(Cl)c(CO)c1
59 to 60 °C	O=C(OCc1ccccc1)C(CO)N(C(=O)Cc1ccccc1)C(=O)OCc1ccccc1 (configuration not stated)
213 to 216 °C	Nc1ccc2c(Cl)cc(Cl)nc2n1
280 to 283 °C	N#Cc1c(N)nc2ccc([N+](=O)[O-])cc2c1NCc1ccccc1
61 to 63 °C	CCOC1CCC(=O)N1S(=O)(=O)C=Cc1ccccc1 (configuration not stated)
257 to 258 °C	O=C(O)c1ccc2c(c1)C(=O)N(c1ccccc1)C2=O
131 to 133 °C	CC(c1ccccc1N1CCCCC1)C(C(N)=O)c1ccc(C(=O)N2CCCCC2)cc1 (configuration not stated)
130 to 131 °C	CNNC(=O)c1ccc(Cl)cc1
245 to 248 °C	O=C(Nc1cccc(F)c1)NC1CCN(S(=O)(=O)c2ccc(Cl)cc2)CC1
205 to 206 °C	CO[C@@H](CCc1nc(-c2ccccc2)oc1C)c1ccc(C=C2SC(=O)NC2=O)cc1
78 °C	CCCCCCCCCCCc1ccc(-c2ccc(OCC(C)CC)nn2)cc1 (configuration not stated)
123 to 126 °C	CCc1cccc2c1CCNC2=O
151 to 153 °C	CC(=O)Nc1cc(O)ccc1Oc1ccccc1
299 °C	O=c1c(-c2ccc(Cl)cc2)coc2cc(O)c(O)cc12
183 to 187 °C	O=C(CC(=Cc1cccc2ccccc12)C(=O)O)NCCc1ccccc1
215 to 220 °C	CCN1CCOc2cc(Nc3ncc(Cl)c(Nc4ccccc4C(=O)NC)n3)ccc2C1=O
176 °C	Cc1nn(C)c(C)c1C(=O)Nc1cccc2c1C(C)CC2(C)C (configuration not stated)
137 to 139 °C	COc1cc(N(C(C)=O)C2CCCCC2)c2ccccc2c1OC(C)=O
81 to 84 °C	CCCCS(=O)(=O)Nc1ccc(CCCCOCCCCCCNCC(O)c2ccc(O)c(CO)c2)cc1 (configuration not stated)
130 °C	O=C(Nc1n[nH]c(=S)s1)N[C@@H](Cc1ccccc1)C(=O)O
94 to 102 °C	Cn1cc2c(n1)SSSSS2
144 to 146 °C	COc1cc(N)ccc1C(=O)O
244 to 246 °C	COc1cc2c(=O)n(CCN3CCN(C)CC3)c3c4cc5c(cc4ncc3c2cc1OC)OCO5
175 to 178 °C	c1cc(Nc2nccc(-c3ccco3)n2)cc(-n2ccnc2)c1
144 to 146 °C	COC(=O)C(NS(=O)(=O)c1ccc(-c2ccc([N+](=O)[O-])cc2)cc1)C(C)C (configuration not stated)

melting point	SMILES
245 °C	CC(C)c1ccc(C(=O)O)cc1S(N)(=O)=O
175 to 177 °C	O=C(O)c1cc(S(=O)(=O)N2CCC(CCl)CC2)ccc1Cl
190 to 192 °C	CCOC(=O)c1c(C=O)c2ccc3oc4ccccc4c3c2n1C
45 to 46 °C	Cc1cc(SCc2sc(-c3ccc(F)cc3)nc2C)ccc1OCC(=O)O
106 to 107 °C	Oc1ccc(Cl)cc1C(O)c1ccc(Cl)cc1 (configuration not stated)
213 to 215 °C	O=C1NCCc2[nH]c3cc(F)ccc3c21
70 to 75 °C	Cc1c(C)c2c(c(C)c1OCc1ccccc1)CCC(C)(CC=O)O2 (configuration not stated)
62 to 72 °C	Nc1cc(N2CCCNCC2)nc(N)n1
120 to 123 °C	CN(C)S(=O)(=O)OCCOc1ccc(-n2ccnc2)cc1
206 °C	CO/C(=C\C=C\c1cc2ccccc2o1)C(=O)O
231 to 233 °C	NC(=O)NN=Cc1ccc(Oc2cc(Cl)ccn2)cc1
149 °C	CCOC(=O)C1=C(C)Nc2nc(N(C)C)nc(N(C)C)c2C1c1cccc([N+](=O)[O-])c1 (configuration not stated)
187 to 190 °C	CC1(C)O[C@@H]2[C@@H](O1)[C@H](C(=O)O)O[C@H]2n1cnc2c(N)nc(I)nc21
54 to 55 °C	COc1ccc(OCC2NCCS2)cc1 (configuration not stated)
256 to 260 °C	Nc1cc(=O)n(Cc2ccccc2)c(=O)n1-c1cccc([N+](=O)[O-])c1
186 to 187 °C	Oc1ccc(-c2cc3cc(O)ccc3o2)c(-c2ccc(OCc3ccccc3)cc2)c1
142 to 145 °C	CC(=O)Oc1ccc(-n2nc(C(F)(F)F)cc2-c2ccc(S(C)(=O)=O)cc2)cc1
160 to 162 °C	N#CSc1nc(Cl)ncc1Cl
96 to 105 °C	C=C1CC(c2cnc(-c3ccccc3Cl)s2)N(C)C1=O (configuration not stated)
99 to 102 °C	O=C(NCc1ccccc1[N+](=O)[O-])C1Cc2ccccc2N1S(=O)(=O)c1ccc(-c2ccc(F)cc2F)cc1 (configuration not stated)
154 to 159 °C	CS(=O)(=O)O[C@H]1CC[C@H](Nc2ccnc3cc(Cl)ccc23)CC1
175 to 176 °C	Cn1ccc2c3c(C=O)c4ccccc4cc3ccc21
91 to 92 °C	CC1=CC(OC(=O)c2ccccc2)C(O)C(C)(C)CC1=O (configuration not stated)
153 to 154 °C	O=C(O)[C@@H]1CCCN(CC#CCN2c3ccccc3CCc3ccccc32)C1
> 260 °C	CCCCCCCCCCCCOC(=O)N[C@@H](CCCCN)C(=O)O

melting point	SMILES
222 to 224 °C	O=C1CCC(N2Cc3c(OCc4cn5ccccc5n4)cccc3C2=O)C(=O)N1 (configuration not stated)
170 to 171 °C	CSc1nnc(-c2ccccc2Nc2c(Cl)ccc(C)c2Cl)o1
143 to 146 °C	Cc1cccc2cc(C(=O)N(C)C)c(C=CNc3ccccc3)nc12
98 to 101 °C	Oc1ccc(-c2cccc(Cl)c2)cc1
313 to 315 °C	O=c1oc2ccccc2c2c(-c3ccccc3)c3c4ccccc4ccn3c12
171 to 172 °C	COc1cc2c(cc1OC)C(=O)C(C)C(C)O2 (configuration not stated)
87 °C	CCOC(=O)c1c(C(C)C)nc(C(C)C)c(C(=O)OCC)c1-c1ccc(OCc2ccccc2)cc1
114 °C	COC(=O)c1cc(N)cc(C(F)(F)F)n1
169 to 171 °C	CCCCC(Cn1cncn1)(C(=O)O)c1ccc(Cl)cc1 (configuration not stated)
50 to 53 °C	CCN1C(OC)=NC(C)=NS1(=O)=O
154 to 159 °C	CCCn1nc(C2CC2)c(C(=O)OCC)c1Cc1ccc(-c2ccccc2-c2nnn(C(c3ccccc3)(c3ccccc3)c3ccccc3)n2)cc1
152 to 155 °C	CC(C)(C)S(=O)(=O)CS(=O)(=O)C(C)(C)C
174 to 182 °C	CC1=C(C(=O)O)Cc2ccc(C)cc21
82 to 93 °C	COc1cc2c(cc1C=O)C(C)(C(F)(F)F)OCC2 (configuration not stated)
190 to 192 °C	O=C(c1ccccc1)N1CCN(c2ccccc2)CCN1C(=O)c1ccccc1
264 to 266 °C	Cn1cc(-c2cc3nccnc3[nH]2)c2ccccc21
137 to 138 °C	Cc1cccc(-c2[nH]c(C(C)C)nc2-c2cccc(-c3ccc4c(c3)C=CS4(=O)=O)c2)n1
194 °C	COC(=O)C1(Cc2ccc(Br)cc2)CC(=O)CN1C(=O)Nc1cc(Cl)cc(Cl)c1 (configuration not stated)
198 to 200 °C	COc1ccc(S(=O)(=O)N(CCO)c2ccccc2/C=C/c2ccncc2)cc1
193 to 195 °C	Cc1cnc(N2N=C(c3ccc([N+](=O)[O-])cc3)c3cc4c(cc3CC2C)OCO4)s1 (configuration not stated)
171 to 172 °C	C=CC(C)(C)CC(NC(=O)c1ccc(Cl)cc1)NC(=NC#N)Nc1cccnc1 (configuration not stated)
141 to 142 °C	CCOc1cccc(CC(=O)O)c1OCCCc1cn(-c2ccc(C(F)(F)F)cn2)nc1C(C)C

SMILES	melting point
CC(C)CC(C)(C#N)N=NC(C)(C#N)CC(C)C (configuration not stated)	52 to 56 °C
CC(=O)Nc1ccc([N+](=O)[O-])c(Cl)c1	134 to 136 °C
CC1(C)COP(N(CCCCCCN(C2CC(C)(C)NC(C)(C)C2)P2OCC(C)(C)CO2)C2CC(C)(C)NC(C)(C)C2)OC1	103 °C
CC(C)(C)C12COC(CCCCBr)(OC1)OC2	111 to 115 °C
Cc1cccc2c3c([nH]c12)CCC(N1CCCC1)C3 (configuration not stated)	159 to 163 °C
